“And” between values parts separate entries of the source, which are not always exact repeats. Equal entries are not always repeated. Values belong to the compound of their own block, whether it stands above or below them. The source made the active and inactive calls.
Key:
[1] = molecular target: T1, ATP-dependent translocase ABCB1 (Homo sapiens, UniProt P08183); experiment: ABCG2 efflux pump inhibitor potency, dose response, Ig-MXP3 cells, JC-1, flow cytometry, set 2 (AID 504566); format: functional; conditions: read-out: EC50_MICROM_;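 also: flow cytometry median green fluorescence of retained JC-1 dye; potency of efflux pump inhibition measured as rising substrate retention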
T1 sequence (P08183 whole entry): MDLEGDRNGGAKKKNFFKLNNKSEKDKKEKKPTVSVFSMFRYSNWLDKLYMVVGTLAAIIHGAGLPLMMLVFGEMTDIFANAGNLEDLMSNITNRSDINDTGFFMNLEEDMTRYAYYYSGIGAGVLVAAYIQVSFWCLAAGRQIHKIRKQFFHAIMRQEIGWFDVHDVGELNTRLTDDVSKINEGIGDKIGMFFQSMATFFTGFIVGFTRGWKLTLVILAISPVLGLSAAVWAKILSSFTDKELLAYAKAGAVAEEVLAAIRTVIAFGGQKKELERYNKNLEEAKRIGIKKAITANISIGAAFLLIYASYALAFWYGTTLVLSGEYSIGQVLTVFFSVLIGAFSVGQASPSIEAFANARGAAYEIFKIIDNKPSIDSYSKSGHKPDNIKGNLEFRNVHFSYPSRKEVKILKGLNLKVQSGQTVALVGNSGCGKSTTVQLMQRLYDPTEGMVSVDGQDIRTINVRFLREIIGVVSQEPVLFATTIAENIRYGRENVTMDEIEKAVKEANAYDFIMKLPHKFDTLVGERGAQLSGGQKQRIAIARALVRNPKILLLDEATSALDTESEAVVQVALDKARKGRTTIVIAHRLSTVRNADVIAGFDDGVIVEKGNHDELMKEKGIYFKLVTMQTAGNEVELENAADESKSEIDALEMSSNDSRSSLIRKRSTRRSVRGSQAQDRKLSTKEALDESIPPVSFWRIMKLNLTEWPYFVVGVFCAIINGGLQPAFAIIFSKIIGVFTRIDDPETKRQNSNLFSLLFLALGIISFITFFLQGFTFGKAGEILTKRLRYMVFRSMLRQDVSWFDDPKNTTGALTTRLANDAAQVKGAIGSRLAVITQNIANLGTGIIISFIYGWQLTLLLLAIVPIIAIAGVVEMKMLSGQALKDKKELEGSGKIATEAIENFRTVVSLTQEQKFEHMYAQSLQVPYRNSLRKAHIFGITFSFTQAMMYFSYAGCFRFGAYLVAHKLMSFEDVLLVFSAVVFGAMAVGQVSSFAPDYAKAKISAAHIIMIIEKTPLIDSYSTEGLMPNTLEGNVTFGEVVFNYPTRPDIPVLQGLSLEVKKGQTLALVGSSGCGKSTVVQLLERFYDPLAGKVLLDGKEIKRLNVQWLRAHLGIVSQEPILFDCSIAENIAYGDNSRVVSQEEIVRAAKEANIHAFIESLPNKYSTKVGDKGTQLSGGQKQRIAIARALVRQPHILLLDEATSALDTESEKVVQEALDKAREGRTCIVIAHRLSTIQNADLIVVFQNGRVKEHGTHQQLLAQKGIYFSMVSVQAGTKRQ

[2] = molecular target: T1, ATP-dependent translocase ABCB1; experiment: ABCB1 efflux inhibitor potency, dose response, Jurkat-DNR cells, JC-1, flow cytometry, set 2 (AID 504569); format: functional; conditions: read-out: EC50_MICROM_;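 also: potency of pump inhibitors that raise cellular JC-1 green fluorescence up to the nicardipine level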
[3] = ARNT/TACC3 interaction disruptors, potency, confirmation, biochemical, AlphaScreen, cherry-picked samples (AID 651703); format: functional, Homo sapiens;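 also: His-tagged ARNT PAS-B domain paired with GST-TACC3 E629A dimer coactivator fragment; potency of inhibitors that break up the complex and lower AlphaScreen signal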
[4] = molecular target: Induced myeloid leukemia cell differentiation protein Mcl-1 (Homo sapiens, UniProt Q07820); format: functional
Sequence of Induced myeloid leukemia cell differentiation protein Mcl-1 (Q07820 whole entry): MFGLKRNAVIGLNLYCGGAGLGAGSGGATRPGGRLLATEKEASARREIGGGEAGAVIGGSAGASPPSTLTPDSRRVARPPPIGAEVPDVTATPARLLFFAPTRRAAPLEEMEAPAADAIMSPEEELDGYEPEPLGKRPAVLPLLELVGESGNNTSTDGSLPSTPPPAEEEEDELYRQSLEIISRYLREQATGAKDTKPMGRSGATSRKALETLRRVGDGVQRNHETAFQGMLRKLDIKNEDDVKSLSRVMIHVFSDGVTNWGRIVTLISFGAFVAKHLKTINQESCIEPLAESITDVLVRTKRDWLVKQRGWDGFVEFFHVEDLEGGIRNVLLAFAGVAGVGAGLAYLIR

[5] = molecular target: T2, Probable nicotinate-nucleotide adenylyltransferase (Staphylococcus aureus (strain N315), UniProt P65502); format: functional, Staphylococcus aureus subsp. aureus N315;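 as to IC50 Mean: confirmatory dose-response retesting of NadD inhibitor hits first found in an ultra-high-throughput screen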
[6] = molecular target: T2, Probable nicotinate-nucleotide adenylyltransferase; format: functional, Staphylococcus aureus subsp. aureus N315; conditions: read-out: IC50_Mean
Orexin receptor type 2 [7] = molecular target: T3, Orexin receptor type 2 (Homo sapiens, UniProt O43614); experiment: Counterscreen assay for antagonists of the orexin 1 receptor (OX1R; HCRTR1): Homogeneous Time Resolved Fluorescence (HTRF)-based cell-based dose response assay for antagonists of the orexin 2 receptor (OX2R; HCRTR2), run by assay provider.; format: functional
T3 sequence (O43614 whole entry): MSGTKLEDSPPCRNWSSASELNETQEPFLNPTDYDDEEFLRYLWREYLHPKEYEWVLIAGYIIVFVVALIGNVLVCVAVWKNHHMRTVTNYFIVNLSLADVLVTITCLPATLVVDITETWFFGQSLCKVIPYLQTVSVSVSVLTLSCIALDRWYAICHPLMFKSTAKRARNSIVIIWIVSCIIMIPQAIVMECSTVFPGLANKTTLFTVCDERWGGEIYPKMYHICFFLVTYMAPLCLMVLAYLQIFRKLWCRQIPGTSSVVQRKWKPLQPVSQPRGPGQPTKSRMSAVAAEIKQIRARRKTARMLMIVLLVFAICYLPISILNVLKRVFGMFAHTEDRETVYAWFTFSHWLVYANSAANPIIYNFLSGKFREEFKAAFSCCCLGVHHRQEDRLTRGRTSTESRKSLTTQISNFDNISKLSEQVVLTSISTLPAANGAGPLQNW

CHO-K1 = experiment: (§1) Counterscreen for antagonists of the orexin 1 receptor (OX1R; HCRTR1): Homogeneous time resolved fluorescence (HTRF)-based cell-based dose response assay to identify antagonists of the parental CHO-K1 cell line. [Related pubchem assays (depositor defined):AID434989, AID435008, AID463079, AID485270, AID492963, AID492964, AID492965, AID493232, AID504699, AID504701]; format: functional; conditions: Cricetulus griseus
[8] = as §1, with “Fluorescence-based” for “Homogeneous time resolved fluorescence (HTRF)-based”, “cell-based high throughput” for “cell-based”, “CHO” for “CHO-K1”; format: functional
[9] = molecular target: T4, Orexin/Hypocretin receptor type 1 (Homo sapiens, UniProt O43613); experiment: Homogeneous Time Resolved Fluorescence (HTRF)-based cell-based high throughput dose response assay for antagonists of the orexin 1 receptor (OX1R; HCRTR1). [Related pubchem assays (depositor defined):AID434989, AID435008, AID463079, AID485270, AID492963, AID492964, AID492965, AID493232, AID504717, AID504718]; format: functional
T4 sequence (O43613 whole entry): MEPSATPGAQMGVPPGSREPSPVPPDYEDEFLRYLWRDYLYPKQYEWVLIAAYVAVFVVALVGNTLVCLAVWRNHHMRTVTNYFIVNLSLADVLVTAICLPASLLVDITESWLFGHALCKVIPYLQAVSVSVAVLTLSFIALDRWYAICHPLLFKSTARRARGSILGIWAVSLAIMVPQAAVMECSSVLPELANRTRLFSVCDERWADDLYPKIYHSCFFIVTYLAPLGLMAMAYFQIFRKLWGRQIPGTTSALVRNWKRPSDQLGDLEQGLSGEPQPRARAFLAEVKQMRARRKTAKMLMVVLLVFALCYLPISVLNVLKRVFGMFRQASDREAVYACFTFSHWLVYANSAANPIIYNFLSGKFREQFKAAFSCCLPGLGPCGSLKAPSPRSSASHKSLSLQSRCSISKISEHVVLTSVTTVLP

Orexin receptor type 2 [10] = molecular target: T3, Orexin receptor type 2; experiment: Counterscreen assay for antagonists of the orexin 1 receptor (OX1R; HCRTR1): Fluorescence-based cell-based dose response assay for antagonists of the orexin 2 receptor (OX2R; HCRTR2), run by assay provider.; format: functional
Coagulation factor XII = molecular target: T5, Coagulation factor XII (Homo sapiens, UniProt P00748); format: functional;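 also: activated factor XIIa alpha cleaving a fluorogenic AMC peptide substrate; inhibitor potency from loss of enzyme activity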
T5 sequence (P00748 whole entry): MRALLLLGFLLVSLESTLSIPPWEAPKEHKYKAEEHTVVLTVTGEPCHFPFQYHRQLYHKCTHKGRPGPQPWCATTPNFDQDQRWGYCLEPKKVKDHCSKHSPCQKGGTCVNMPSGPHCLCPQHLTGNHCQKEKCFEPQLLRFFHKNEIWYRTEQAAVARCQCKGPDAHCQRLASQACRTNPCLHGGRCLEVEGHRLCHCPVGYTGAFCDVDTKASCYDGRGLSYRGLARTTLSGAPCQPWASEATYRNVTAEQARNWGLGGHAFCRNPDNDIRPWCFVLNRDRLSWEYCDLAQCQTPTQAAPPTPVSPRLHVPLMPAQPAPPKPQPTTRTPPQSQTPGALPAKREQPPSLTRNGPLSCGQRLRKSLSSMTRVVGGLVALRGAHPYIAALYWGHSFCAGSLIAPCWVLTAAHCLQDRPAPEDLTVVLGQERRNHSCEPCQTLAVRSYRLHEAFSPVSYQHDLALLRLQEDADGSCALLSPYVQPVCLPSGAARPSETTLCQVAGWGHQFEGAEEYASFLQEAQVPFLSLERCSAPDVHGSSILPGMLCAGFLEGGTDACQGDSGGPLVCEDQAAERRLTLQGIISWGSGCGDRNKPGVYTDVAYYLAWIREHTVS

[11] = molecular target: T4, Orexin/Hypocretin receptor type 1; experiment: Fluorescence-based cell-based high throughput dose response assay for antagonists of the orexin 1 receptor (OX1R; HCRTR1). [Related pubchem assays (depositor defined):AID434989, AID435008, AID463079, AID485270, AID492963, AID492964, AID492965, AID493232, AID504717, AID504718]; format: functional

EC50 [1]: 720 nM (active) and 2 µM (active) | EC50 [2]: 2.67 µM (active) and 3.69 µM (active)
Compound: O=C(c1ccco1)N1CCN(c2cc(-c3ccccc3)nc3cc(-c4cccc(Cl)c4)nn23)CC1

Compound: O=C(N/N=C1/CCS(=O)(=O)c2ccc(F)cc21)c1ccccn1
AC50 [3]: 78.4 µM (active)

IC50 [4]: 3.11 µM (active) | IC50 [5]: 15.2 µM (active) | IC50 [6]: 73.1 µM (active)
Compound: COc1ccc(/C=C2\SC(=O)N(CCC(=O)Nc3ccc(S(=O)(=O)Nc4nccs4)cc3)C2=O)cc1

Compound: Cc1ccc(C(=O)N/C(=C/c2ccc(-c3cccc([N+](=O)[O-])c3)o2)C(=O)NC(C)(C)C)cc1
IC50 (Orexin receptor type 2 [7]): 2.42 µM (active) | IC50 (CHO-K1): > 66.3 µM (inactive) | IC50 [8]: > 49.8 µM (inactive) | IC50 [9]: 2.09 µM (active) | IC50 (Orexin receptor type 2 [10]): 27.9 µM (inactive) | IC50 (Coagulation factor XII): > 50 µM (inactive) | IC50 [11]: > 5.53 µM (active)

Source: ChEMBL document CHEMBL1201862, “PubChem BioAssay data set” (2004)
